Paper PMC4814262 (Cancer Science, 2016)

Target: LAT1 (Homo sapiens, UniProt Q01650)
Experiment: radiolabelled uptake in Xenopus oocytes
Type: cell-based
Settings: Na+-free uptake buffer (choline-Cl), pH 7.5, room temperature, 15 min; labelled compound

LAT1, sequence (Q01650 whole entry): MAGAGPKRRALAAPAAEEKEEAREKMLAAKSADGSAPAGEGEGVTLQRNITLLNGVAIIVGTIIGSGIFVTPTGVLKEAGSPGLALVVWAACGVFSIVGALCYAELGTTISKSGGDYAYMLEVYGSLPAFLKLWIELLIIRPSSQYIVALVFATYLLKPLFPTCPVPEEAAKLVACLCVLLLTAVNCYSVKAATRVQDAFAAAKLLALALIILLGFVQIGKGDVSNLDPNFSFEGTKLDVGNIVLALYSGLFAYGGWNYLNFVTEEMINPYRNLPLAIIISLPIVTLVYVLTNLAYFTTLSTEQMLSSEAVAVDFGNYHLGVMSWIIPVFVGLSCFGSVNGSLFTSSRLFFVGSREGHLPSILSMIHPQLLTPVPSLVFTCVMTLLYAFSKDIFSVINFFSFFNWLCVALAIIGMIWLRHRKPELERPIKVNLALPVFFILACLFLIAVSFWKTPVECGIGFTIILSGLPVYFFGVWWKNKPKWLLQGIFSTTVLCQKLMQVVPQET
LAT1, sequence (P08195 103-630 partner): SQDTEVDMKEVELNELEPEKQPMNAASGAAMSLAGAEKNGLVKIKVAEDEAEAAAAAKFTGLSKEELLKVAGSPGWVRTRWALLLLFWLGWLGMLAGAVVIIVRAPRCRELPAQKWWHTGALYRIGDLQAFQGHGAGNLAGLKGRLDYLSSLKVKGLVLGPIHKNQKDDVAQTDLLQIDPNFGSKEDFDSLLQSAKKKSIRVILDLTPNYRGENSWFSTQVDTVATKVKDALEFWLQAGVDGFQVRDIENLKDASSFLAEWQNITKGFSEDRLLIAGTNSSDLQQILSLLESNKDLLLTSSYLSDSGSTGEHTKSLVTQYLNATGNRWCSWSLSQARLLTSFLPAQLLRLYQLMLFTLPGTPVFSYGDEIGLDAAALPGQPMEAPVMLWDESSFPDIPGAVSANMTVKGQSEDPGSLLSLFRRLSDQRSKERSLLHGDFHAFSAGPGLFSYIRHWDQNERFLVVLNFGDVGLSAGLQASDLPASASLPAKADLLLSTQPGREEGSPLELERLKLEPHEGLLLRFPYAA

Compound: C[C@](N)(Cc1ccc(O)c(F)c1)C(=O)O [FAMT, 3‐fluoro‐L‐α‐methyl[carboxyl‐^14C]tyrosine]
- Km: 72.7 ± 11 µM
